In this assay the target is T1, recombinant human ALK enzyme (ALK WT) (Homo sapiens, UniProt Q9UM73).
T1 construct: purchased Carna Biosciences 08-518
Briefly: ALK WT cell free enzymatic assay (TR-FRET). The settings on record: 1 μM ATP; for IC50: 10 point dose response; for inhibition at 0.1 µM: compound at 100 nM; for inhibition at 0.1 µM / inhibition at 1 µM: 30 min pre-incubation; for inhibition at 1 µM: compound at 1 μM. It counts as biochemical. In short, it runs like this: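 Recombinant human ALK with 40 nM Ultra Light Poly GT, 1 μM ATP and Eu anti-phosphotyrosine antibody, 1% DMSO, pH 7.1 HEPES; 30 min enzyme-compound pre-incubation, then 30 min reaction. TR-FRET 665/615 ratio; percent inhibition at 100 nM and 1 μM, IC50 from 10-point sigmoidal fit.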

Each structure is given as a SMILES string. Structures can show the parent of a compound that is named as a salt.

T1 sequence (Q9UM73 1058-1620 limits assumed): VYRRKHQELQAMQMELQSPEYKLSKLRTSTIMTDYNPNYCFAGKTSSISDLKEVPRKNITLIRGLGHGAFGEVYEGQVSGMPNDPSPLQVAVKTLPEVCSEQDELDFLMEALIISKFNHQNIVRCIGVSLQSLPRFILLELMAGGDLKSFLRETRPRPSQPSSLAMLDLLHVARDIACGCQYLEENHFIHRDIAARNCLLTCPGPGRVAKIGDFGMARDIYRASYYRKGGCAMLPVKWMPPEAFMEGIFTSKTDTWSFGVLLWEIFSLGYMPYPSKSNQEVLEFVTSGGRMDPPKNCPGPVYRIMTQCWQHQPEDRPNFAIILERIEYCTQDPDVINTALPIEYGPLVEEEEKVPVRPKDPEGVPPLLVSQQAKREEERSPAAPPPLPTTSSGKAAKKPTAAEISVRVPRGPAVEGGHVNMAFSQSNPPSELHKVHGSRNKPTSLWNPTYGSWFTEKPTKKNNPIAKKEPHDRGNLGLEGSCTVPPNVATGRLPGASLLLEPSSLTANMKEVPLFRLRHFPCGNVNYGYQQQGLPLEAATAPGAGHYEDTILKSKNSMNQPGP

With `Cc1nn(Cc2cccc(F)c2)c(C)c1-c1c[nH]c2ncc(-c3ccc(N4CCN(C[C@H](C)O)CC4)nc3)cc12` [Example 161, (2S)-1-(4-(5-(3-(1-(3-fluorobenzyl)-3,5-dimethyl-1H-pyrazol-4-yl)-1H-pyrrolo[2,3-b]pyridin-5-yl)pyridin-2-yl)piperazin-1-yl)propan-2-ol], the 50% inhibitory concentration (IC50) is below 50 nM, the inhibition at 0.1 µM came out at 86% and the inhibition at 1 µM came to 97%.

In the case of `c1ccc(CCn2cc(-c3c[nH]c4ncc(-c5cccc(OC6CCNCC6)c5)cc34)cn2)cc1` [Example 97, 3-(1-phenethyl-1H-pyrazol-4-yl)-5-(3-(piperidin-4-yloxy)phenyl)-1H-pyrrolo[2,3-b]pyridine], the IC50 was below 50 nM, the inhibition at 0.1 µM was 76% and the inhibition at 1 µM was 98%.

For the compound `COc1ccc(-c2cnc3[nH]cc(-c4cnn(CCc5ccc(F)cc5)c4)c3c2)cc1NS(C)(=O)=O` [Example 76, N-(5-(3-(1-(4-fluorophenethyl)-1H-pyrazol-4-yl)-1H-pyrrolo[2,3-b]pyridin-5-yl)-2-methoxyphenyl)methanesulfonamide], the concentration for half-maximal inhibition (IC50) is 50 to 250 nM, the inhibition at 0.1 µM was found to be 32% and the inhibition at 1 µM came to 94%.

In the case of `CN1CCC(c2ccc(-c3cnc4[nH]cc(-c5cnn(Cc6cccc(F)c6)c5)c4c3)cc2)CC1` [Example 83, 3-(1-(3-fluorobenzyl)-1H-pyrazol-4-yl)-5-(4-(1-methylpiperidin-4-yl)phenyl)-1H-pyrrolo[2,3-b]pyridine], the IC50 is below 50 nM, the inhibition at 0.1 µM was found to be 96% and the inhibition at 1 µM was 100%.

Consider `CS(=O)(=O)N1CCN(c2ccc(-c3cnc4[nH]cc(-c5cnn(Cc6cccc(F)c6)c5)c4c3)cc2)CC1` [Example 125, 3-(1-(3-fluorobenzyl)-1H-pyrazol-4-yl)-5-(4-(4-(methylsulfonyl)piperazin-1-yl)phenyl)-1H-pyrrolo[2,3-b]pyridine], for which the IC50 was below 50 nM, the inhibition at 0.1 µM was 86% and the inhibition at 1 µM is 97%.

Turning to `COc1ccc(-c2cnc3[nH]cc(-c4c(C)nn(Cc5cccc(F)c5)c4C)c3c2)c(OC)c1NS(C)(=O)=O` [Example 29, N-(3-(3-(1-(3-fluorobenzyl)-3,5-dimethyl-1H-pyrazol-4-yl)-1H-pyrrolo[2,3-b]pyridin-5-yl)-2,6-dimethoxyphenyl)methanesulfonamide], the inhibition at 0.1 µM came out at 28% and the inhibition at 1 µM was determined as 48%.

Regarding `COc1ncc(-c2cnc3[nH]cc(-c4cnn(Cc5cccc(F)c5)c4)c3c2)cc1NS(C)(=O)=O` [Example 67, N-(5-(3-(1-(3-fluorobenzyl)-1H-pyrazol-4-yl)-1H-pyrrolo[2,3-b]pyridin-5-yl)-2-methoxypyridin-3-yl)methanesulfonamide], the IC50 was below 50 nM, the inhibition at 0.1 µM worked out at 98% and the inhibition at 1 µM stood at 100%.

On to `Fc1cccc(Cn2cc(-c3c[nH]c4ncc(-c5cccc(CC6CCNCC6)c5)cc34)cn2)c1` [Example 102, 3-(1-(3-fluorobenzyl)-1H-pyrazol-4-yl)-5-(3-(piperidin-4-ylmethyl)phenyl)-1H-pyrrolo[2,3-b]pyridine], for which the concentration for half-maximal inhibition (IC50) is below 50 nM, the inhibition at 0.1 µM amounted to 91% and the inhibition at 1 µM worked out at 100%.

For `Cc1nn(Cc2cccc(Cl)c2)c(C)c1-c1c[nH]c2ncc(-c3ccc(N4CCNCC4)cc3)cc12` [Example 47, 3-(1-(3-chlorobenzyl)-3,5-dimethyl-1H-pyrazol-4-yl)-5-(4-(piperazin-1-yl)phenyl)-1H-pyrrolo[2,3-b]pyridine hydrochloride], the IC50 is below 50 nM, the inhibition at 0.1 µM worked out at 90% and the inhibition at 1 µM worked out at 100%.

Take `Fc1cccc(Cn2cc(-c3c[nH]c4ncc(-c5ccc(N6CCNCC6)nc5)cc34)cn2)c1` [Example 132, 3-(1-(3-fluorobenzyl)-1H-pyrazol-4-yl)-5-(6-(piperazin-1-yl)pyridin-3-yl)-1H-pyrrolo[2,3-b]pyridine]: the half-inhibitory concentration (IC50) is below 50 nM, the inhibition at 0.1 µM is 100% and the inhibition at 1 µM was determined as 100%.

Regarding `Cc1nn(Cc2cccc(OC(F)(F)F)c2)c(C)c1-c1c[nH]c2ncc(-c3ccc(N4CCNCC4)cc3)cc12` [Example 52, 3-(3,5-dimethyl-1-(3-(trifluoromethoxy)benzyl)-1H-pyrazol-4-yl)-5-(4-(piperazin-1-yl)phenyl)-1H-pyrrolo[2,3-b]pyridine hydrochloride], the IC50 is above 250 nM, the inhibition at 0.1 µM was 12% and the inhibition at 1 µM stood at 80%.

For the compound `c1cc(Cn2cc(-c3c[nH]c4ncc(-c5ccc(C6CCNCC6)cc5)cc34)cn2)ccn1` [Example 171, 5-(4-(piperidin-4-yl)phenyl)-3-(1-(pyridin-4-ylmethyl)-1H-pyrazol-4-yl)-1H-pyrrolo[2,3-b]pyridine], the IC50 lay within 50 to 250 nM, the inhibition at 0.1 µM was 41% and the inhibition at 1 µM stood at 88%.

Take `C[C@@H](O)CN1CCN(c2ccc(-c3cnc4[nH]cc(-c5cnn(Cc6cccc(F)c6)c5)c4c3)cc2)CC1` [Example 120, (R)-1-(4-(4-(3-(1-(3-fluorobenzyl)-1H-pyrazol-4-yl)-1H-pyrrolo[2,3-b]pyridin-5-yl)phenyl)piperazin-1-yl)propan-2-ol]: the concentration for half-maximal inhibition (IC50) was below 50 nM, the inhibition at 0.1 µM was 95% and the inhibition at 1 µM is 99%.

With `OC1CCN(c2ccc(-c3cnc4[nH]cc(-c5cnn(Cc6cccc(F)c6)c5)c4c3)cn2)CC1` [Example 155, 1-(5-(3-(1-(3-fluorobenzyl)-1H-pyrazol-4-yl)-1H-pyrrolo[2,3-b]pyridin-5-yl)pyridin-2-yl)piperidin-4-ol], the IC50 is below 50 nM, the inhibition at 0.1 µM amounted to 86% and the inhibition at 1 µM amounted to 97%.

Consider `CS(=O)(=O)Nc1cccc(-c2cnc3[nH]cc(-c4cnn(Cc5cccc(C(F)(F)F)c5)c4)c3c2)c1` [Example 2, N-(3-(3-(1-(3-(trifluoromethyl)benzyl)-1H-pyrazol-4-yl)-1H-pyrrolo[2,3-b]pyridin-5-yl)phenyl) methanesulfonamide], for which the IC50 is above 250 nM and the inhibition at 1 µM was determined as 33%.

For the compound `CC(C)CN1CCN(c2ccc(-c3cnc4[nH]cc(-c5cnn(Cc6cccc(F)c6)c5)c4c3)cn2)CC1` [Example 152, 3-(1-(3-fluorobenzyl)-1H-pyrazol-4-yl)-5-(6-(4-isobutylpiperazin-1-yl)pyridin-3-yl)-1H-pyrrolo[2,3-b]pyridine], the IC50 was below 50 nM, the inhibition at 0.1 µM turned out to be 80% and the inhibition at 1 µM came out at 100%.

Consider `COc1ccc(-c2cnc3[nH]cc(-c4cnn(CCc5cccc(F)c5)c4)c3c2)cc1NS(C)(=O)=O` [Example 75, N-(5-(3-(1-(3-fluorophenethyl)-1H-pyrazol-4-yl)-1H-pyrrolo[2,3-b]pyridin-5-yl)-2-methoxyphenyl)methanesulfonamide], for which the IC50 is below 50 nM, the inhibition at 0.1 µM was determined as 61% and the inhibition at 1 µM turned out to be 100%.

In the case of `CCOc1cccc(Cn2nc(C)c(-c3c[nH]c4ncc(-c5ccc(N6CCNCC6)cc5)cc34)c2C)c1` [Example 54, 3-(1-(3-ethoxybenzyl)-3,5-dimethyl-1H-pyrazol-4-yl)-5-(4-(piperazin-1-yl)phenyl)-1H-pyrrolo[2,3-b]pyridine hydrochloride], the inhibition at 0.1 µM turned out to be 0% and the inhibition at 1 µM was found to be 25%.

For the origin of these results see US9353107B2 (Aurigene Discovery Technologies Limited, priority 2012, dated 2016).
